From US10947289B2, “Glyco-modified atrial natriuretic peptide” (priority 2013, dated 2021) come the findings set out here.

Like-named read-outs stand apart in the source and are kept apart here.

Data set [1] can be described thus: Detection of test substance in rat plasma by LC-MS/MS (Test Example 3). It counts as in vivo. The following applies: rat plasma, 100 nmol/kg i.v., LC-MS/MS; time at which the test substance was finally detected. Here is the method: Before the administration and 15, 30, 60, 90, 120, 180, and 240 minutes after the administration, blood was sampled (200 μL/sampling) over time from the jugular vein. The blood samples were immediately left on ice.
The collected blood samples were centrifuged at 5000 rpm at 4° C. for 5 minutes by use of a centrifuge (Sigma 4K15, rotor: Nr12130-H). The separated plasma samples were divided into two types (samples for PK measurement and for cGMP measurement) and stored at −80° C. until measurement.
An internal standard (20 μL (500 nM) of a stable isotope of hANP) and an acetic acid mixed solvent (AcOH/distilled water/DMSO=5/3/2, v/v/v) were added to 50 μL of each rat plasma sample prepared in (1) and then mixed therewith. The mixture was transferred to Amicon Ultra-0.5 50K (Millipore Corp., MA) and centrifuged at 14000 rpm at 15° C. for 30 minutes. The obtained filtrate was transferred to Amicon Ultra-0.5 3K (Millipore Corp., MA) and centrifuged again under the aforementioned conditions. The solution remaining on the filter was recovered and transferred to a 96-well deep well plate. The content of the test substance was measured by LC-MS/MS (LC: Shimadzu LC-10ADVP (Shimadzu Corp.), MS/MS: API 4000 QTrap (AB SCIEX)) to calculate the concentration in plasma. The time at which the test substance was finally detected is shown in the rightmost column of Table 2.

Data set [2] addresses T1, human GC-A (Homo sapiens, UniProt P16066).
T1 construct: expressed in transfected cells; host or cells: CHO cells
T1 sequence (P16066 33-1061): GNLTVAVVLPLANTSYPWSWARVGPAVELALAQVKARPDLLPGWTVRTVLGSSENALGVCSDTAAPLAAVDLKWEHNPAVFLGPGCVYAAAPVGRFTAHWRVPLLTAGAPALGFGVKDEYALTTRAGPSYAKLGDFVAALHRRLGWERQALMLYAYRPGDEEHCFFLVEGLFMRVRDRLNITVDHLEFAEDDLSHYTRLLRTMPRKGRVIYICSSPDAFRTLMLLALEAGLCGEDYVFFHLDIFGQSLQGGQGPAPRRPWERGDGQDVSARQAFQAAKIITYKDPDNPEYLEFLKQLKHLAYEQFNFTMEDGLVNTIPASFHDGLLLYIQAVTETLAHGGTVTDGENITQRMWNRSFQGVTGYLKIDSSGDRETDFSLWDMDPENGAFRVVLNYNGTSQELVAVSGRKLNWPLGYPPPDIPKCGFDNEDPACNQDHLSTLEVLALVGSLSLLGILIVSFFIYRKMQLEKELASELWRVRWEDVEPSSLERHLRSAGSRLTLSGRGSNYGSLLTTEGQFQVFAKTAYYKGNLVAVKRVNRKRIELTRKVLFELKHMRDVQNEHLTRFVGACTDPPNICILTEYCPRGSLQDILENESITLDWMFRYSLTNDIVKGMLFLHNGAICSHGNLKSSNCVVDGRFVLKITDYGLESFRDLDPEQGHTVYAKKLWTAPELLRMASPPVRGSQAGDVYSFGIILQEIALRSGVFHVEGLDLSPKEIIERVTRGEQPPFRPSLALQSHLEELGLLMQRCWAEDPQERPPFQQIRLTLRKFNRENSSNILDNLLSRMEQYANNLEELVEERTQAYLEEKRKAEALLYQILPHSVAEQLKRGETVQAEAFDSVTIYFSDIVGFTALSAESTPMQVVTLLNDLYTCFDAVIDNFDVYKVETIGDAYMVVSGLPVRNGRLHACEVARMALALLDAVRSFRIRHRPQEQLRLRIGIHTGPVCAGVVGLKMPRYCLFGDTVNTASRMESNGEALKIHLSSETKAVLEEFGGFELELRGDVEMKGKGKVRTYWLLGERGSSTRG
Kind of data set: cGMP elevating activity in CHO/human GC-A cells (Test Example 1). It counts as cell-based. The following applies: for Emax: maximum T/C in range 0.01-100 nM, solvent only = 0, 1 nM ANP = 1. The gist of the method:
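cGMP in lysates was read by HTRF after a 15 min peptide exposure of GC-A-expressing CHO cells in a CO2 incubator, following 10 min room-temperature preincubation with 1.6 mM IBMX in KRB. T/C values were normalised between solvent wells (0) and 1 nM ANP wells (1).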

The mark [3] stands for this setting: CHO/human GC-A cells, concentration at T/C=0.5, 15 minutes incubation, read-out: EC50.

For `CC[C@H](C)[C@@H]1NC(=O)[C@H](CCCNC(=N)N)NC(=O)[C@H](CC(=O)O)NC(=O)[C@H](CCSC)NC(=O)[C@H](CCCNC(=N)N)NC(=O)CNC(=O)CNC(=O)[C@H](Cc2ccccc2)NC(=O)[C@@H](NC(=O)[C@H](CO)NC(=O)[C@H](CO)NC(=O)[C@H](CCCNC(=N)N)NC(=O)[C@H](CCCNC(=N)N)NC(=O)[C@H](CC(C)C)NC(=O)[C@H](CO)NC(=O)CO[C@@H]2O[C@H](CO)[C@@H](O[C@@H]3O[C@H](CO)[C@@H](O[C@@H]4O[C@H](CO[C@H]5O[C@H](CO)[C@@H](O)[C@H](O)[C@@H]5O[C@@H]5O[C@H](CO)[C@@H](O[C@@H]6O[C@H](CO[C@]7(C(=O)O)C[C@H](O)[C@@H](NC(C)=O)[C@H]([C@H](O)[C@H](O)CO)O7)[C@H](O)[C@H](O)[C@H]6O)[C@H](O)[C@H]5NC(C)=O)[C@@H](O)[C@H](O[C@H]5O[C@H](CO)[C@@H](O)[C@H](O)[C@@H]5O[C@@H]5O[C@H](CO)[C@@H](O[C@@H]6O[C@H](CO[C@]7(C(=O)O)C[C@H](O)[C@@H](NC(C)=O)[C@H]([C@H](O)[C@H](O)CO)O7)[C@H](O)[C@H](O)[C@H]6O)[C@H](O)[C@H]5NC(C)=O)[C@@H]4O)[C@H](O)[C@H]3NC(C)=O)[C@H](O)[C@H]2NC(C)=O)CSSC[C@@H](C(=O)N[C@@H](CC(N)=O)C(=O)N[C@@H](CO)C(=O)N[C@@H](Cc2ccccc2)C(=O)N[C@@H](CCCNC(=N)N)C(=O)N[C@@H](Cc2ccc(O)cc2)C(=O)O)NC(=O)CNC(=O)[C@H](CC(C)C)NC(=O)CNC(=O)[C@H](CO)NC(=O)[C@H](CCC(N)=O)NC(=O)[C@H](C)NC(=O)CNC1=O` [Compound 2-1, SG-hANP(1-28)], in data set [1], the “Maximum time of detection after administration” value stood at 3 h. With `CC[C@H](C)[C@@H]1NC(=O)[C@H](CCCNC(=N)N)NC(=O)[C@H](CC(=O)O)NC(=O)[C@H](CCSC)NC(=O)[C@H](CCCNC(=N)N)NC(=O)CNC(=O)CNC(=O)[C@H](Cc2ccccc2)NC(=O)[C@@H](NC(=O)[C@H](CO)NC(=O)[C@H](CO)NC(=O)[C@H](CCCNC(=N)N)NC(=O)[C@H](CCCNC(=N)N)NC(=O)[C@H](CC(C)C)NC(=O)[C@H](CO)NC(=O)CO[C@@H]2O[C@H](CO)[C@@H](O[C@@H]3O[C@H](CO)[C@@H](O[C@@H]4O[C@H](CO[C@H]5O[C@H](CO)[C@@H](O)[C@H](O)[C@@H]5O[C@@H]5O[C@H](CO)[C@@H](O[C@@H]6O[C@H](CO)[C@H](O)[C@H](O)[C@H]6O)[C@H](O)[C@H]5NC(C)=O)[C@@H](O)[C@H](O[C@H]5O[C@H](CO)[C@@H](O)[C@H](O)[C@@H]5O[C@@H]5O[C@H](CO)[C@@H](O[C@@H]6O[C@H](CO)[C@H](O)[C@H](O)[C@H]6O)[C@H](O)[C@H]5NC(C)=O)[C@@H]4O)[C@H](O)[C@H]3NC(C)=O)[C@H](O)[C@H]2NC(C)=O)CSSC[C@@H](C(=O)N[C@@H](CC(N)=O)C(=O)N[C@@H](CO)C(=O)N[C@@H](Cc2ccccc2)C(=O)N[C@@H](CCCNC(=N)N)C(=O)N[C@@H](Cc2ccc(O)cc2)C(=O)O)NC(=O)CNC(=O)[C@H](CC(C)C)NC(=O)CNC(=O)[C@H](CO)NC(=O)[C@H](CCC(N)=O)NC(=O)[C@H](C)NC(=O)CNC1=O` [Compound 2-10, AG(9)-hANP(1-28)], in data set [1], the “Maximum time of detection after administration” value is 1.5 h. The same measure, in the same setting: the figure for `CC[C@H](C)[C@@H]1NC(=O)[C@H](CCCNC(=N)N)NC(=O)[C@H](CC(=O)O)NC(=O)[C@H](CCSC)NC(=O)[C@H](CCCNC(=N)N)NC(=O)CNC(=O)CNC(=O)[C@H](Cc2ccccc2)NC(=O)[C@@H](NC(=O)[C@H](CO)NC(=O)[C@H](CO)NC(=O)[C@H](CCCNC(=N)N)NC(=O)[C@H](CCCNC(=N)N)NC(=O)[C@H](CC(C)C)NC(=O)[C@H](CO)NC(=O)CO[C@@H]2O[C@H](CO)[C@@H](O[C@@H]3O[C@H](CO)[C@@H](O[C@@H]4O[C@H](CO[C@H]5O[C@H](CO)[C@@H](O)[C@H](O)[C@@H]5O[C@@H]5O[C@H](CO)[C@@H](O)[C@H](O)[C@H]5NC(C)=O)[C@@H](O)[C@H](O[C@H]5O[C@H](CO)[C@@H](O)[C@H](O)[C@@H]5O[C@@H]5O[C@H](CO)[C@@H](O)[C@H](O)[C@H]5NC(C)=O)[C@@H]4O)[C@H](O)[C@H]3NC(C)=O)[C@H](O)[C@H]2NC(C)=O)CSSC[C@@H](C(=O)N[C@@H](CC(N)=O)C(=O)N[C@@H](CO)C(=O)N[C@@H](Cc2ccccc2)C(=O)N[C@@H](CCCNC(=N)N)C(=O)N[C@@H](Cc2ccc(O)cc2)C(=O)O)NC(=O)CNC(=O)[C@H](CC(C)C)NC(=O)CNC(=O)[C@H](CO)NC(=O)[C@H](CCC(N)=O)NC(=O)[C@H](C)NC(=O)CNC1=O` [Compound 2-11, AG(7)-hANP(1-28)] is 2 h.

Broadly, the EC50 is the concentration that produces a half-maximal response. In the case of `CC[C@H](C)[C@@H]1NC(=O)[C@H](CCCNC(=N)N)NC(=O)[C@H](CC(=O)O)NC(=O)[C@H](CCSC)NC(=O)[C@H](CCCNC(=N)N)NC(=O)CNC(=O)CNC(=O)[C@H](Cc2ccccc2)NC(=O)[C@@H](NC(=O)[C@H](CO)NC(=O)[C@H](CO)NC(=O)[C@H](CCCNC(=N)N)NC(=O)[C@H](CCCNC(=N)N)NC(=O)[C@H](CC(C)C)NC(=O)[C@H](CO)NC(=O)CNC(=O)CO[C@@H]2O[C@H](CO)[C@@H](O[C@@H]3O[C@H](CO)[C@@H](O[C@@H]4O[C@H](CO[C@H]5O[C@H](CO)[C@@H](O)[C@H](O)[C@@H]5O[C@@H]5O[C@H](CO)[C@@H](O[C@@H]6O[C@H](CO[C@]7(C(=O)O)C[C@H](O)[C@@H](NC(C)=O)[C@H]([C@H](O)[C@H](O)CO)O7)[C@H](O)[C@H](O)[C@H]6O)[C@H](O)[C@H]5NC(C)=O)[C@@H](O)[C@H](O[C@H]5O[C@H](CO)[C@@H](O)[C@H](O)[C@@H]5O[C@@H]5O[C@H](CO)[C@@H](O[C@@H]6O[C@H](CO[C@]7(C(=O)O)C[C@H](O)[C@@H](NC(C)=O)[C@H]([C@H](O)[C@H](O)CO)O7)[C@H](O)[C@H](O)[C@H]6O)[C@H](O)[C@H]5NC(C)=O)[C@@H]4O)[C@H](O)[C@H]3NC(C)=O)[C@H](O)[C@H]2O)CSSC[C@@H](C(=O)N[C@@H](CC(N)=O)C(=O)N[C@@H](CO)C(=O)N[C@@H](Cc2ccccc2)C(=O)N[C@@H](CCCNC(=N)N)C(=O)N[C@@H](Cc2ccc(O)cc2)C(=O)O)NC(=O)CNC(=O)[C@H](CC(C)C)NC(=O)CNC(=O)[C@H](CO)NC(=O)[C@H](CCC(N)=O)NC(=O)[C@H](C)NC(=O)CNC1=O` [Compound 2-40, SG(Glc)-Gly-A-hANP(1-28)], the response in data set [2] was half-maximal at 0.05 nM (EC50). Consider “SG2-(SG2-)Lys-[SG2-(SG2-)-Lys-]Lys-PEG(3)-hANP(1-28) [Compound 2-20]”, for which the EC50 in data set [2] (setting [3]) came to 64 nM. Also, in data set [2], the Emax was 0.59. Take “[(SG2-)Cys-Gly]5-hANP(1-28) [Compound 2-18]”: the EC50 in data set [2] (setting [3]) came to 48 nM. In data set [2], this compound gave an Emax of 0.63. With “[(SG-)Cys-Gly]5-hANP(1-28) [Compound 2-17]”, in data set [2] (setting [3]), the EC50 worked out at 35 nM. Also, in data set [2], the Emax was 0.70.
